In patent publication US9682985B2, “(Indazol-4-yl) hexahydropyrrolopyrrolones and methods of use” (AbbVie Inc., priority 2015, dated 2017):

Assays:
[1] = biological target: T1, recombinant human Nav1.7 (Homo sapiens, UniProt Q15858); assay: FRET-based membrane potential assay, Nav1.7; type: cell-based; details: HEK293 cells expressing recombinant human Nav1.7; veratridine + scorpion venom depolarization
T1 construct: expressed in transfected cells; host or cells: HEK293

[2] = biological target: T2, hERG channel (Kv11.1) (Homo sapiens, UniProt Q12809); assay: hERG QPatch screening protocol (hERG current block); type: cell-based; details: HEK-293 cells stably transfected with hERG; tail current; room temperature
T2 construct: W. January (Wisconsin Alumni Research Foundation); host or cells: HEK-293
Protocol: hERG QPatch Screening Protocol
Solutions and Compound Plates:
The bath solution contained (in mM): 140 NaCl, 5 KCl, 1 MgCl2, 2 CaCl2, 5 glucose, 20 HEPES, pH=7.4. The internal solution contained (in mM): 125 K-aspartate, 20 KCl, 10 EGTA, 5 MgATP, 1 MgCl2, 5 HEPES, pH=7.3.
Compound plates were prepared with an acoustic liquid handler (Echo® 550, Labcyte), using 384-well source plates and 96-well destination plates. Compounds were delivered to the destination plates as 300 nL spots in half-log increments (1, 3, 10 and 30 mM), dissolved in dimethyl sulfoxide. Plates were solvated with bath solution (300 μL) to final concentrations (1, 3, 10 and 30 μM; 0.1% dimethyl sulfoxide) and added to the QPatch workstation.
Cells and Cell Preparation:
Human embryonic kidney (HEK-293) cells, stably transfected with the hERG channel, were obtained from Dr. C. W. January (Wisconsin Alumni Research Foundation). Cells were initially maintained at 37° C. (5% CO2 atmosphere) in MEM supplemented media. Cells were cryo-preserved in 10% dimethyl sulfoxide, 90% fetal bovine serum at 10 M cells/mL. For electrophysiological studies, cells were thawed, resuspended in media at 1.0-1.5 M cells/mL and placed on the QPatch workstation.
QPatch Electrophysiology Workstation and Experimental Protocol:
Currents were recorded using QPatch HT (Sophion), an automated planar patch-clamp system. The QPatch uses forty-eight amplifiers and a 48-chamber QPlate positioned directly on top of the headstage. To obtain high resistant seals, cells are added to each chamber and allowed to settle for 10 seconds. Negative pressure is then applied to promote cell delivery to the patch chip openings on the chamber bottom. After formation of GΩ seals, negative pressure ramps are applied to obtain intracellular access. Access resistance was initially optimized by additional pressure ramps to assure the intracellular access was adequate for voltage clamp experiments (targeted access resistance <10 MΩ). Whole-cell compensation and series resistance compensation were used at 60% (both predicted and corrected). Experiments using QPatch were conducted at room temperature.
A single application of each concentration was applied to cells. During a five-minute wash-in period, a four-second depolarizing pulse to +20 mV, followed by a five-second repolarizing pulse to −50 mV was applied once every 15 seconds from a holding potential of −80 mV. Cells were exposed to four ascending concentrations of drug in half-log intervals.
Evaluation of hERG Current Block:
hERG tail current was measured as the difference in amplitude between a […] and the end of a five-second test pulse to −50 mV, preceded by a four-second pulse to +20 mV. The hERG IC50 values for compounds were determined from tail current analysis. The IC50 was calculated with a logistic fitting routine using the following equation: y=[(A1−A2)/(1+(x/IC50))^p]A2, where A1=initial×value, A2=final×value and p=power.

T2 sequence (Q12809 whole entry): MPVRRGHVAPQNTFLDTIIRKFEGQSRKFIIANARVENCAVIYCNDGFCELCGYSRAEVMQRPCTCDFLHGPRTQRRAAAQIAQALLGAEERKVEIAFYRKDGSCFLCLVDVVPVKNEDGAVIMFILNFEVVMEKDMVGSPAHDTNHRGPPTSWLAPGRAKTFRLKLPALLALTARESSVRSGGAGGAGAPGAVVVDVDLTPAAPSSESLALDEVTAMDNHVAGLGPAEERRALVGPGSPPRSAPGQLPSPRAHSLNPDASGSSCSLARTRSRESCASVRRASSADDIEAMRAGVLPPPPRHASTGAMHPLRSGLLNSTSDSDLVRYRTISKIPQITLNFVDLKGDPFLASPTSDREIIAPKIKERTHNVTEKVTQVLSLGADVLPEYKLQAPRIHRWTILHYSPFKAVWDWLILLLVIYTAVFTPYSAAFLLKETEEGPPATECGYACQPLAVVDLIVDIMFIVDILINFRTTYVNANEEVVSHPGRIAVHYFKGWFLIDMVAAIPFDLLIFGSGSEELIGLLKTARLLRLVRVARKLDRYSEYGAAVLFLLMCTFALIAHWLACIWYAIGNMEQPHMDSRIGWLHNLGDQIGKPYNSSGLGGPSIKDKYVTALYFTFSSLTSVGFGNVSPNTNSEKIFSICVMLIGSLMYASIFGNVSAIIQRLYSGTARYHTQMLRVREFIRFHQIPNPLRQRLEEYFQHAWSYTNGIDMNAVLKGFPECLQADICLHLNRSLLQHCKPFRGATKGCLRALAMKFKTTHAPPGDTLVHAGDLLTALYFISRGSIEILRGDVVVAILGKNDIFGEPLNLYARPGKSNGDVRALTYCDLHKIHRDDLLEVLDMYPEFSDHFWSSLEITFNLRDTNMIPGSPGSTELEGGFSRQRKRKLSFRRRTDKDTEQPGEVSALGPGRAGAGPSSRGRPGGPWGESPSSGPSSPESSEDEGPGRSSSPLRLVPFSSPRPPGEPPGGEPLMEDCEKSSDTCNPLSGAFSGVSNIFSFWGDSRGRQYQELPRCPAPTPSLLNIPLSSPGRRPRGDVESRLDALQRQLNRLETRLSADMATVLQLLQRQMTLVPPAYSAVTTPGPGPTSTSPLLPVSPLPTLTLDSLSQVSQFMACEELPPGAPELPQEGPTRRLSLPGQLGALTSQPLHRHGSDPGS
T1 sequence (Q15858 whole entry): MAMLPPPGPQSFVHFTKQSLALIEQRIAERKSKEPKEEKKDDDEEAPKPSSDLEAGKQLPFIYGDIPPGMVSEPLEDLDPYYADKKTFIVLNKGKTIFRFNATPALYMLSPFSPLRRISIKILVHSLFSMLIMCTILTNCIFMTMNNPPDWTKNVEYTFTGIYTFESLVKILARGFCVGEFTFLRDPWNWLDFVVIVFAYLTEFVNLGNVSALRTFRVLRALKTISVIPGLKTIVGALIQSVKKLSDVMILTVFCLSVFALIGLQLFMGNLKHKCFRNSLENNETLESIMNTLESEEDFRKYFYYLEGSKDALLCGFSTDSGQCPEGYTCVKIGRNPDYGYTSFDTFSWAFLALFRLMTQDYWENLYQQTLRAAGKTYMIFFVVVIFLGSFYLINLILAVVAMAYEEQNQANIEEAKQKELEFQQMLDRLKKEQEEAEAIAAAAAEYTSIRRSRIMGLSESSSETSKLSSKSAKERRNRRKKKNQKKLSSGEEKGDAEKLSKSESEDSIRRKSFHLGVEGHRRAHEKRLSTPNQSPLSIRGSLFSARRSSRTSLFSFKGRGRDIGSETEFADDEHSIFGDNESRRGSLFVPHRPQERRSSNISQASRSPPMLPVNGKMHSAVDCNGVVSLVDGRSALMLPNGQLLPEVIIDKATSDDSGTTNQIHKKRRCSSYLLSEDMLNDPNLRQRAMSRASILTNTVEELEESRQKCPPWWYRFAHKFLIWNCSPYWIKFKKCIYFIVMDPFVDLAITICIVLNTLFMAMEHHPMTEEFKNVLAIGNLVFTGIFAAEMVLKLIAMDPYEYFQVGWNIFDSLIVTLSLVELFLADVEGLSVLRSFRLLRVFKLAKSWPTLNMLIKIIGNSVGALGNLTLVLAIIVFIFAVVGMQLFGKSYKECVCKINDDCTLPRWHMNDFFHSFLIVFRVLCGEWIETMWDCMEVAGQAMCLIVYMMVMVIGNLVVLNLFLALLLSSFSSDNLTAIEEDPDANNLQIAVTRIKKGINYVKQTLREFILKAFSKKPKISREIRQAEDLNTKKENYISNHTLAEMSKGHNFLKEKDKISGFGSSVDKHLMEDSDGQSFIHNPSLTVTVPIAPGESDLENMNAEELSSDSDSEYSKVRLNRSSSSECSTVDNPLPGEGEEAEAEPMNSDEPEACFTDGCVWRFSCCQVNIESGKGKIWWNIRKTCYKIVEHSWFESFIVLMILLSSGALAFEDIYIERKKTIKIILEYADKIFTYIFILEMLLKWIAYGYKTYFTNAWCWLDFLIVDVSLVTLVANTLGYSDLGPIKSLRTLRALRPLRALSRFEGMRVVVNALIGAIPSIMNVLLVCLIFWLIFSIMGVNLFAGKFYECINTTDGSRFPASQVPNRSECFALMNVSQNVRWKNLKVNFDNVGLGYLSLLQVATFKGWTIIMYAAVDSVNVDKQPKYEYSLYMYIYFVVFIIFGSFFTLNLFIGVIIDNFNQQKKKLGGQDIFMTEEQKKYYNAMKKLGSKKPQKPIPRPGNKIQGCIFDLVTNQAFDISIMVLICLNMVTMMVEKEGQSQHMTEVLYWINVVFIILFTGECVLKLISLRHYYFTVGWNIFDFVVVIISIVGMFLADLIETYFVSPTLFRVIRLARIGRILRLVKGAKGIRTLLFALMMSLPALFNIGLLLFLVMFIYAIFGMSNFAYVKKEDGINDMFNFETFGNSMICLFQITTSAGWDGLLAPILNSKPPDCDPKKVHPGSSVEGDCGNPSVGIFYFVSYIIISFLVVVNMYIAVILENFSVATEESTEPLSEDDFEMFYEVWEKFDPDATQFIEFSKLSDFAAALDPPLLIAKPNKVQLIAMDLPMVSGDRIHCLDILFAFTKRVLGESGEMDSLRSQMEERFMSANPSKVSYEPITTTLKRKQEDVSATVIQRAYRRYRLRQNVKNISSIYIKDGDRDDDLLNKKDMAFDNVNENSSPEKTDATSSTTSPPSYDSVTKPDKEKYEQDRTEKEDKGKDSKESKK

Row | Structure (SMILES) | IC50 [1] [µM] | IC50 [2] [µM]
1 | CC(C)(O)C(=O)N1CC[C@@H]2CN(c3cccc4c3cnn4-c3ccccc3F)C(=O)[C@@H]21 (relative stereo) [Example 4, rel-(3aR,6aR)-5-[1-(2-fluorophenyl)-1H-indazol-4-yl]-1-(2-hydroxy-2-methylpropanoyl)hexahydropyrrolo[3,4-b]pyrrol-6(1H)-one] | 1.95 | > 30
2 | O=C1[C@H]2[C@H](CCN2C(=O)C2(O)CC2)CN1c1cccc2c1cnn2-c1ccccc1F (relative stereo) [Example 5, rel-(3aR,6aR)-5-[1-(2-fluorophenyl)-1H-indazol-4-yl]-1-[(1-hydroxycyclopropyl)carbonyl]hexahydropyrrolo[3,4-b]pyrrol-6(1H)-one] | 1.68 | > 30
3 | O=C1[C@H]2CN(C(=O)n3ccnc3)C[C@H]2CN1c1cccc2c1cnn2-c1ccccc1F (relative stereo) [Example 12, rel-(3aR,6aR)-2-[1-(2-fluorophenyl)-1H-indazol-4-yl]-5-(1H-imidazol-1-ylcarbonyl)hexahydropyrrolo[3,4-c]pyrrol-1(2H)-one] | 3.06 | 13.7
4 | O=C(NCc1cnco1)N1C[C@H]2CN(c3cccc4c3cnn4-c3ccccc3F)C(=O)[C@H]2C1 (relative stereo) [Example 13, rel-(3aR,6aR)-5-[1-(2-fluorophenyl)-1H-indazol-4-yl]-N-(1,3-oxazol-5-ylmethyl)-4-oxohexahydropyrrolo[3,4-c]pyrrole-2(1H)-carboxamide] | 11.1 | 
5 | CN(C)C(=O)N1C[C@H]2CN(c3cccc4c3cnn4-c3ccccc3F)C(=O)[C@H]2C1 (relative stereo) [Example 15, rel-(3aR,6aR)-5-[1-(2-fluorophenyl)-1H-indazol-4-yl]-N,N-dimethyl-4-oxohexahydropyrrolo[3,4-c]pyrrole-2(1H)-carboxamide] | 7.57 | 
6 | CC(=O)N1C[C@@H]2CN(c3cccc4c3cnn4-c3ccccc3F)C(=O)[C@H]2C1 (relative stereo) [Example 17, rel-(3aR,6aR)-5-acetyl-2-[1-(2-fluorophenyl)-1H-indazol-4-yl]hexahydropyrrolo[3,4-c]pyrrol-1(2H)-one] | 8.93 | 
7 | CC(C)C(=O)N1C[C@@H]2CN(c3cccc4c3cnn4-c3ccccc3F)C(=O)[C@@H]2C1 [Example 20, (3aR,6aS)-2-[1-(2-fluorophenyl)-1H-indazol-4-yl]-5-isobutyrylhexahydropyrrolo[3,4-c]pyrrol-1(2H)-one] | 4.48 | 
8 | CC(C)CS(=O)(=O)N1C[C@@H]2CN(c3cccc4c3cnn4-c3ccccc3F)C(=O)[C@@H]2C1 [Example 21, (3aS,6aS)-2-[1-(2-fluorophenyl)-1H-indazol-4-yl]-5-(isobutylsulfonyl)hexahydropyrrolo[3,4-c]pyrrol-1(2H)-one] | 0.903 | 14.2
9 | CS(=O)(=O)N1C[C@@H]2CN(c3cccc4c3cnn4-c3ccccc3F)C(=O)[C@@H]2C1 [Example 22, (3aS,6aS)-2-[1-(2-fluorophenyl)-1H-indazol-4-yl]-5-(methylsulfonyl)hexahydropyrrolo[3,4-c]pyrrol-1(2H)-one] | 6.72 | 
10 | CCS(=O)(=O)N1C[C@@H]2CN(c3cccc4c3cnn4-c3ccccc3F)C(=O)[C@@H]2C1 [Example 23, (3aS,6aS)-5-(ethylsulfonyl)-2-[1-(2-fluorophenyl)-1H-indazol-4-yl]hexahydropyrrolo[3,4-c]pyrrol-1(2H)-one] | 2.93 | > 30
11 | O=C(Cc1coc2ccccc12)N1CC2CN(c3cccc4c3cnn4-c3ccccc3F)C(=O)C2C1 [Example 25, (3aR,6aS)-5-(1-benzofuran-3-ylacetyl)-2-[1-(2-fluorophenyl)-1H-indazol-4-yl]hexahydropyrrolo[3,4-c]pyrrol-1(2H)-one] | 1.29 | 4.31
12 | O=C1[C@@H]2CN(S(=O)(=O)CCC(F)(F)F)C[C@@H]2CN1c1cccc2c1cnn2-c1ccccc1F [Example 26, (3aS,6aS)-2-[1-(2-fluorophenyl)-1H-indazol-4-yl]-5-[(3,3,3-trifluoropropyl)sulfonyl]hexahydropyrrolo[3,4-c]pyrrol-1(2H)-one] | 2.94 | > 30
13 | O=C1[C@@H]2CN(S(=O)(=O)c3cccnc3)C[C@@H]2CN1c1cccc2c1cnn2-c1ccccc1F [Example 27, (3aS,6aS)-2-[1-(2-fluorophenyl)-1H-indazol-4-yl]-5-(pyridin-3-ylsulfonyl)hexahydropyrrolo[3,4-c]pyrrol-1(2H)-one] | 3.62 | 
14 | O=C1[C@@H]2CN(S(=O)(=O)C3CC3)C[C@@H]2CN1c1cccc2c1cnn2-c1ccccc1F [Example 28, (3aS,6aS)-5-(cyclopropylsulfonyl)-2-[1-(2-fluorophenyl)-1H-indazol-4-yl]hexahydropyrrolo[3,4-c]pyrrol-1(2H)-one] | 3.82 | 
15 | CC(C)(C)OC(=O)N1CCC(S(=O)(=O)N2CC3CN(c4cccc5c4cnn5-c4ccccc4F)C(=O)C3C2)CC1 [Example 30, tert-butyl 4-{[(3aS,6aS)-5-[1-(2-fluorophenyl)-1H-indazol-4-yl]-4-oxohexahydropyrrolo[3,4c]-pyrrol-2(1H)-yl]sulfonyl}piperidine-1-carboxylate] | 3.62 | 
16 | Cc1noc(C)c1CC(=O)N1C[C@@H]2CN(c3cccc4c3cnn4-c3ccccc3F)C(=O)[C@@H]2C1 [Example 33, (3aR,6aS)-5-[(3,5-dimethyl-1,2-oxazol-4-yl)acetyl]-2-[1-(2-fluorophenyl)-1H-indazol-4-yl]hexahydropyrrolo[3,4-c]pyrrol-1(2H)-one] | 13.3 | 
17 | C[C@H](O)CC(=O)N1C[C@@H]2CN(c3cccc4c3cnn4-c3ccccc3F)C(=O)[C@@H]2C1 [Example 36, (3aR,6aS)-2-[1-(2-fluorophenyl)-1H-indazol-4-yl]-5-[(3S)-3-hydroxybutanoyl]hexahydropyrrolo[3,4-c]pyrrol-1(2H)-one] | 11.5 | 
18 | C[C@@H](O)CC(=O)N1C[C@H]2CN(c3cccc4c3cnn4-c3ccccc3F)C(=O)[C@H]2C1 [Example 38, (3aS,6aR)-2-[1-(2-fluorophenyl)-1H-indazol-4-yl]-5-[(3R)-3-hydroxybutanoyl]hexahydropyrrolo[3,4-c]pyrrol-1(2H)-one] | 6.4 | 
19 | C[C@@H](O)CC(=O)N1C[C@@H]2CN(c3cccc4c3cnn4-c3ccccc3F)C(=O)[C@@H]2C1 [Example 39, (3aR,6aS)-2-[1-(2-fluorophenyl)-1H-indazol-4-yl]-5-[(3R)-3-hydroxybutanoyl]hexahydropyrrolo[3,4-c]pyrrol-1(2H)-one] | 14.6 | 
20 | O=C(C1CC1(F)F)N1C[C@@H]2CN(c3cccc4c3cnn4-c3ccccc3F)C(=O)[C@@H]2C1 (stereo partly drawn) [Example 40, (3aR,6aS)-5-[(2,2-difluorocyclopropyl)carbonyl]-2-[1-(2-fluorophenyl)-1H-indazol-4-yl]hexahydropyrrolo[3,4-c]pyrrol-1(2H)-one] | 10.4 | 
21 | CC(C)(O)C(=O)N1C[C@H]2CN(c3cccc4c3cnn4-c3ccccc3F)C(=O)[C@H]2C1 [Example 41, (3aS,6aR)-2-[1-(2-fluorophenyl)-1H-indazol-4-yl]-5-(2-hydroxy-2-methylpropanoyl)hexahydropyrrolo[3,4-c]pyrrol-1(2H)-one] | 13.1 | 
22 | O=C1[C@H]2CN(C(=O)C3(O)CC3)C[C@H]2CN1c1cccc2c1cnn2-c1ccccc1F [Example 42, (3aS,6aR)-2-[1-(2-fluorophenyl)-1H-indazol-4-yl]-5-[(1-hydroxycyclopropyl)carbonyl]hexahydropyrrolo[3,4-c]pyrrol-1(2H)-one] | 8.89 | 
23 | CC(C)(O)C(=O)N1CC[C@@H]2CN(c3cccc4c3cnn4-c3ccccc3F)C(=O)[C@@H]21 [Example 47, (3aR,6aR)-5-[1-(2-fluorophenyl)-1H-indazol-4-yl]-1-(2-hydroxy-2-methylpropanoyl)hexahydropyrrolo[3,4-b]pyrrol-6(1H)-one] | 3.06 | 
24 | O=C1[C@H]2[C@H](CCN2C(=O)C2(O)CC2)CN1c1cccc2c1cnn2-c1ccccc1F [Example 48, (3aR,6aR)-5-[1-(2-fluorophenyl)-1H-indazol-4-yl]-1-[(1-hydroxycyclopropyl)carbonyl]hexahydropyrrolo[3,4-b]pyrrol-6(1H)-one] | 0.593 | 
